# Test results taken from patent publication US20180057507A1, “INHIBITORS OF DUAL LEUCINE ZIPPER (DLK) KINASE FOR THE TREATMENT OF DISEASE” (Board of Regents, The University of Texas System, priority 2016, published 2018).
# Molecular target: T1, human DLK (Homo sapiens, UniProt Q12852)
# T1 sequence (Q12852 1-859): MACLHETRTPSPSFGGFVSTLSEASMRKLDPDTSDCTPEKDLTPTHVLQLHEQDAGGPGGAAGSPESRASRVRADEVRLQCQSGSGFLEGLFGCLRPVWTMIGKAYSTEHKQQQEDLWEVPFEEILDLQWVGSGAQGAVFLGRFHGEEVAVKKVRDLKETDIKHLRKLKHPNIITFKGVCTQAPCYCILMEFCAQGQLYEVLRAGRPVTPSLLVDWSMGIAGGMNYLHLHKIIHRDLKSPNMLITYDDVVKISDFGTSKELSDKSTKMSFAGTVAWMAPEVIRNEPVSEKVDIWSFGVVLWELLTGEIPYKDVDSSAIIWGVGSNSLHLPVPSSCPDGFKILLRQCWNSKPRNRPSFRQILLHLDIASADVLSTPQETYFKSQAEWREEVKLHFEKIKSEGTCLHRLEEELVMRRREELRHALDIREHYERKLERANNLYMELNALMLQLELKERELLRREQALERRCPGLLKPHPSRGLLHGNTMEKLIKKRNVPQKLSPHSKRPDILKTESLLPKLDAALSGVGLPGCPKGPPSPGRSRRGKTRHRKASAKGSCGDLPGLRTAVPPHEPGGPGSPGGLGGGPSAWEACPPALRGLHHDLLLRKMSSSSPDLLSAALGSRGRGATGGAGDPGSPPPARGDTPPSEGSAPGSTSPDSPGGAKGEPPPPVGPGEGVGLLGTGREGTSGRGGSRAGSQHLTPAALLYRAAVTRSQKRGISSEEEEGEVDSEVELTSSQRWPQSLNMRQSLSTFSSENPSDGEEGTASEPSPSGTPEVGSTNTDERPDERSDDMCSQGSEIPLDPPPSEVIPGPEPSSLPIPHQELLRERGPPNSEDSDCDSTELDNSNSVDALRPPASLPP
# Test: DLK Kd Determinations (KINOMEscan KdELECT, DiscoveRx)
# Design: full length of human DLK (amino acids 1-859); host or cells: transiently transfected HEK293 cells; unpurified extract
# Conditions: fusion protein of full length human DLK (amino acids 1-859) and NFkB DNA binding domain; qPCR readout; duplicate
# Method in brief: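 Competition binding of full-length human DLK (aa 1-859)-NFkB DBD fusion, DNA-tagged, from HEK293 extracts against an immobilized ligand; 1 h at room temperature, 0.9% DMSO. Bead-bound kinase was quantified by qPCR. Kd came from an 11-point 3-fold series (top 30,000 nM), in duplicate, with Hill slope fixed at −1.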
row,Structure (SMILES),Kd [nM]
1,"Nc1ncc(-c2cn([C@H]3[C@@H]4CN(CC(F)F)C[C@@H]43)c(C3CC3)n2)cc1OC(F)F [Example 103, 5-(2-cyclopropyl-1-((1R,5S,6s)-3-(2,2-difluoroethyl)-3-azabicyclo[3.1.0]hexan-6-yl)-1H-imidazol-4-yl)-3-(difluoromethoxy)pyridin-2-amine]",92
2,"Nc1ncc(-c2cn([C@H]3[C@@H]4CN(C5COC5)C[C@@H]43)c(C3CC3)n2)cc1OC(F)F [Example 104, 5-(2-cyclopropyl-1-((1R,5S,6s)-3-(oxetan-3-yl)-3-azabicyclo[3.1.0]hexan-6-yl)-1H-imidazol-4-yl)-3-(difluoromethoxy)pyridin-2-amine]",66
3,"Nc1ncc(-c2cn([C@H]3[C@@H]4CN(CCF)C[C@@H]43)c(C3CC3)n2)cc1OC(F)F [Example 106, 5-(2-cyclopropyl-1-((1R,5S,6s)-3-(2-fluoroethyl)-3-azabicyclo[3.1.0]hexan-6-yl)-1H-imidazol-4-yl)-3-(difluoromethoxy)pyridin-2-amine]",55
4,"COCCN1C[C@@H]2[C@H](C1)[C@H]2n1cc(-c2cnc(N)c(OC(F)F)c2)nc1C1CC1 [Example 107, 5-(2-cyclopropyl-1-((1R,5S,6s)-3-(2-methoxyethyl)-3-azabicyclo[3.1.0]hexan-6-yl)-1H-imidazol-4-yl)-3-(difluoromethoxy)pyridin-2-amine]",74
5,"CC(C)c1nc(-c2cnc(N)c(OC(F)(F)F)c2)cn1[C@H]1[C@@H]2CN(CC(F)F)C[C@@H]21 [Example 109, 5-(1-((1R,5S,6s)-3-(2,2-difluoroethyl)-3-azabicyclo[3.1.0]hexan-6-yl)-2-isopropyl-1H-imidazol-4-yl)-3-(trifluoromethoxy)pyridin-2-amine]",66
6,"CC(C)c1nc(-c2cnc(N)c(OC(F)(F)F)c2)cn1[C@H]1[C@@H]2CN(CC(F)(F)F)C[C@@H]21 [Example 110, 5-(2-isopropyl-1-((1R,5S,6s)-3-(2,2,2-trifluoroethyl)-3-azabicyclo[3.1.0]hexan-6-yl)-1H-imidazol-4-yl)-3-(trifluoromethoxy)pyridin-2-amine]",280
7,"CC(C)c1nc(-c2cnc(N)c(OC(F)(F)F)c2)cn1[C@H]1[C@@H]2CN(CCF)C[C@@H]21 [Example 111, 5-(1-((1R,5S,6s)-3-(2-fluoroethyl)-3-azabicyclo[3.1.0]hexan-6-yl)-2-isopropyl-1H-imidazol-4-yl)-3-(trifluoromethoxy)pyridin-2-amine]",100
8,"CC(C)c1nc(-c2cnc(N)c(OC(F)F)c2)cn1[C@H]1[C@@H]2CN(CC(F)F)C[C@@H]21 [Example 112, 5-(1-((1R,5S,6s)-3-(2,2-difluoroethyl)-3-azabicyclo[3.1.0]hexan-6-yl)-2-isopropyl-1H-imidazol-4-yl)-3-(difluoromethoxy)pyridin-2-amine]",160
9,"COCCN1C[C@@H]2[C@H](C1)[C@H]2n1cc(-c2cnc(N)c(OC(F)F)c2)nc1C(C)C [Example 113, 3-(difluoromethoxy)-5-(2-isopropyl-1-((1R,5S,6s)-3-(2-methoxyethyl)-3-azabicyclo[3.1.0]hexan-6-yl)-1H-imidazol-4-yl)pyridin-2-amine]",95
10,"CC(=O)N1C[C@@H]2[C@H](C1)[C@H]2n1cc(-c2cnc(N)c(C(F)(F)F)c2)nc1CC1CC1 [Example 114, 1-((1R,5S,6s)-6-(4-(6-amino-5-(trifluoromethyl)pyridin-3-yl)-2-(cyclopropylmethyl)-1H-imidazol-1-yl)-3-azabicyclo[3.1.0]hexan-3-yl)ethan-1-one]",66
11,"CC(=O)N1C[C@@H]2[C@H](C1)[C@H]2n1cc(-c2cnc(N)c(OC(F)F)c2)nc1C1CC1 [Example 118, 1-((1R,5S,6s)-6-(4-(6-amino-5-(difluoromethoxy)pyridin-3-yl)-2-cyclopropyl-1H-imidazol-1-yl)-3-azabicyclo[3.1.0]hexan-3-yl)ethan-1-one]",62
12,"Nc1ncc(-c2cn([C@H]3[C@@H]4CNC[C@@H]43)c(CC(F)(F)F)n2)cc1C(F)(F)F [Example 120, 5-(1-((1R,5S,6s)-3-azabicyclo[3.1.0]hexan-6-yl)-2-(2,2,2-trifluoroethyl)-1H-imidazol-4-yl)-3-(trifluoromethyl)pyridin-2-amine]",40
13,"Nc1ncc(-c2cn([C@H]3[C@@H]4CN(CC(F)F)C[C@@H]43)c(CC(F)(F)F)n2)cc1C(F)(F)F [Example 122, 5-(1-((1R,5S,6s)-3-(2,2-difluoroethyl)-3-azabicyclo[3.1.0]hexan-6-yl)-2-(2,2,2-trifluoroethyl)-1H-imidazol-4-yl)-3-(trifluoromethyl)pyridin-2-amine]",120
14,"Nc1ncc(-c2cn([C@H]3[C@@H]4CN(CCF)C[C@@H]43)c(CC(F)(F)F)n2)cc1C(F)(F)F [Example 123, 5-(1-((1R,5S,6s)-3-(2-fluoroethyl)-3-azabicyclo[3.1.0]hexan-6-yl)-2-(2,2,2-trifluoroethyl)-1H-imidazol-4-yl)-3-(trifluoromethyl)pyridin-2-amine]",65
15,"Nc1ncc(-c2cn([C@H]3[C@@H]4CN(CC(F)(F)F)C[C@@H]43)c(CC(F)(F)F)n2)cc1C(F)(F)F [Example 124, 5-(2-(2,2,2-trifluoroethyl)-1-((1R,5S,6s)-3-(2,2,2-trifluoroethyl)-3-azabicyclo[3.1.0]hexan-6-yl)-1H-imidazol-4-yl)-3-(trifluoromethyl)pyridin-2-amine]",240

# Now from value to compound:
row,Kd [nM],Structure (SMILES)
1,340,"Nc1ncc(-c2cn([C@H]3[C@@H]4CN(CC(F)(F)F)C[C@@H]43)c(CC3CC3)n2)cc1OC(F)(F)F [Example 99, 5-(2-(cyclopropylmethyl)-1-((1R,5S,6s)-3-(2,2,2-trifluoroethyl)-3-azabicyclo[3.1.0]hexan-6-yl)-1H-imidazol-4-yl)-3-(trifluoromethoxy)pyridin-2-amine]"
2,66,"COCCN1C[C@@H]2[C@H](C1)[C@H]2n1cc(-c2cnc(N)c(OC(F)(F)F)c2)nc1CC1CC1 [Example 100, 5-(2-(cyclopropylmethyl)-1-((1R,5S,6s)-3-(2-methoxyethyl)-3-azabicyclo[3.1.0]hexan-6-yl)-1H-imidazol-4-yl)-3-(trifluoromethoxy)pyridin-2-amine]"
3,81,"Nc1ncc(-c2cn([C@H]3[C@@H]4CN(CCF)C[C@@H]43)c(CC3CC3)n2)cc1OC(F)(F)F [Example 101, 5-(2-(cyclopropylmethyl)-1-((1R,5S,6s)-3-(2-fluoroethyl)-3-azabicyclo[3.1.0]hexan-6-yl)-1H-imidazol-4-yl)-3-(trifluoromethoxy)pyridin-2-amine]"
4,280,"Nc1ncc(-c2cn([C@H]3[C@@H]4CN(CC(F)(F)F)C[C@@H]43)c(CC3CC3)n2)cc1OC(F)F [Example 102, 5-(2-(cyclopropylmethyl)-1-((1R,5S,6s)-3-(2,2,2-trifluoroethyl)-3-azabicyclo[3.1.0]hexan-6-yl)-1H-imidazol-4-yl)-3-(difluoromethoxy)pyridin-2-amine]"
5,140,"Nc1ncc(-c2cn([C@H]3[C@@H]4CN(CC(F)(F)F)C[C@@H]43)c(C3CC3)n2)cc1OC(F)F [Example 108, 5-(2-cyclopropyl-1-((1R,5S,6s)-3-(2,2,2-trifluoroethyl)-3-azabicyclo[3.1.0]hexan-6-yl)-1H-imidazol-4-yl)-3-(difluoromethoxy)pyridin-2-amine]"
6,200,"CC(=O)N1C[C@@H]2[C@H](C1)[C@H]2n1cc(-c2cnc(N)c(OC(F)F)c2)nc1CC1CC1 [Example 115, 1-((1R,5S,6s)-6-(4-(6-amino-5-(difluoromethoxy)pyridin-3-yl)-2-(cyclopropylmethyl)-1H-imidazol-1-yl)-3-azabicyclo[3.1.0]hexan-3-yl)ethan-1-one]"
